Usually LogP stands for a log measure of how a compound divides between an organic and an aqueous phase.

For series [1], the system named is human abdominal skin explants. As to the kind of experiment: Cutaneous distribution and mass balance of radioactivity in human skin explants. Particulars: human skin; for % Radioactivity in culture media after 24 h / Mass balance (% of applied dose at end of incubation): 24 h; for Medium radioactivity / Skin radioactivity / Skin surface radioactivity: end of incubation (24 h), mean ± SD. As for the experimental part:
(§1) Human abdominal skin was obtained (with consent for research from a commercial supplier [L’Union Clinic, Rangueil hospital and Icelltis, Toulouse, France] with certified ethical procedures) from six male and 34 female healthy donors, 41 ± 11 years of age, undergoing cosmetic surgery. Abdominal skin was kept at 4°C during transports and placed in culture within 3 hours of surgery. Pig ear skin was a waste product of the meat industry (without hot steam treatment) from domestic pigs (female Pietrain breed, 6 months old, 80‐100 kg) obtained from a local slaughterhouse (Montauban, France). Ears were taken from the animals within 5 minutes of slaughter and were kept at 4°C during transport to the laboratory, which lasted a maximum of 2 hours. Pig skin samples were dried and then gently shaved.
(§2) The experiment and the preparation of the culture medium were performed under sterile conditions. Human and pig skin was cut with a dermatome to a thickness of 450 ± 50 μm. Skin punches were seeded dermal side down in polycarbonate Transwell® inserts from Corning Life Sciences (Avon, France; 4.16 cm^2 application area with an 8 μm pore size filter). […] The inserts were placed in a six‐well plate containing 1.5 mL culture medium and the skin explants incubated in a standard incubator at 37°C, under an atmosphere of 5% CO2 and 50 ± 10% relative humidity. The culture medium was Dulbecco's modified Eagle medium without phenol red supplemented with 8 mM L‐glutamine, 2 μg/mL streptomycin/penicillin, 25 ng/mL fungizone and 50 ng/mL gentamycin. Skin explants were incubated for 1 hour before application of the formulation.
(§3) The dosing volume was 10 μL/cm^2. For pig skin metabolism studies, which were carried out before the human skin experiments to ensure the analytics were optimal, 2.4 nmol/cm^2 of each chemical (only the ^14C‐labeled form) was applied on the skin and incubated for 24 hours for the measurement of metabolites in the medium. These tissues were further incubated for a total of 48 hours, with a replacement of the culture medium after 24 hours. This longer incubation time and the standard doses of 2.4 nmol/cm^2 were used to maximize the likelihood of the skin forming metabolites to develop analytical methods. The metabolites profiles in pig and human skin were compared in the medium sample at 24 hours of incubation. The metabolite profiles for the 48‐hour timepoint are not reported here since humans skin metabolism was measured at 24 hours only; however, for completeness, the distribution of radioactivity at the end of both pig (48 hours) and human (24 hours) skin incubations is reported. […] The doses were obtained by mixing radiolabeled and cold chemical. One replicate disc per donor and per dose was used. All chemicals were tested on four donors of pig and human skin, except for 2‐AAF and 4‐amino‐3‐nitrophenol (4‐A‐3‐NP), for which three donors were used. The medium was removed after 24 hours of incubation and stored at −20°C for analysis.
(§4) At the end of the experiment, the trans‐wells were dismantled and washed with appropriate solvent for each chemical. […] The cotton swabs were placed in 5 mL of appropriate solvent in a scintillation counting flask and placed in a sonicator bath for 20 minutes. Aliquots of 1 mL were counted by liquid scintillation, after addition of 15 mL of scintillation liquid. Tissue culture inserts were washed with 10 mL of appropriate solvent. One aliquot of 1 mL was counted by liquid scintillation, after addition of 15 mL of scintillation liquid. After media removal, wells were washed twice with 1 mL of the appropriate solvent. Washing solutions were counted by liquid scintillation, after addition of 15 mL of scintillation liquid.
(§5) Pig skin explants were digested using 3 mL Soluable (60°C for 24 hours) and counted by liquid scintillation. Skin extraction process was adapted according to the physicochemical properties of each chemical and its potential metabolites.

In series [2] the test system is N‐acetyltransferase (NAT)1 enzyme. Also on record: method as in unpublished data. Particulars: ref unpublished data; cited from earlier work.
For series [3] the following is noted: ref Chemspider (www.chemspider.com), cited from earlier work.
Series [4] concerns pig ear skin explants. As to the kind of experiment: Cutaneous distribution and mass balance of radioactivity in pig skin explants. Particulars: pig skin; for % Radioactivity in culture media after 24 h / Mass balance (% of applied dose at end of incubation): 2.4 nmol/cm^2; for Mass balance (% of applied dose at end of incubation): 48 h; for Medium radioactivity / Skin radioactivity / Skin surface radioactivity: end of incubation (48 h), mean ± SD. As for the experimental part:
as §1, §2, §3, §4, §5

Series [5] concerns human abdominal skin explants. As for the experimental part: as §1, §2, §3
(§6) After centrifugation, a 100 μL aliquot of the extract was counted by liquid scintillation. The pellet was dissolved in 3 mL Soluable (60°C, 24 hours) and then counted by liquid scintillation.
(§7) Analysis of the chemicals and their metabolites in medium after 24 hours of incubation with pig and human skin was measured by radio‐high‐performance liquid chromatography (HPLC) using an HPLC 1100 Series, Agilent and a Flow Scintillation Analyzer, Radiomatic 610 TR, Perkin Elmer (Villebon‐sur‐Yvette, France). […] To confirm that metabolites were the same in pig and human skin, medium samples were co‐injected on the new column. The metabolites were identified by LC‐electrospray ionization‐HRMS (HPLC‐ESI‐HRMS) with a RSLC3000 HPLC system coupled to a LTQ‐Orbitrap XL mass spectrometer (Thermo Scientific). The HPLC analytical conditions for identification and quantification of the metabolites for each chemical are summarized in Supporting information Table S1.

Series [6] has as its system pig ear skin explants. Here is the method:
as §1, §2, §3, §6, §7

For series [7], the system named is skin explants. As to the kind of experiment: Skin explant assay, radioactivity in culture medium bound to proteins. Conditions: medium with 4% BSA; species not stated. The format is in vitro ADME.

Consider `Nc1ccc(O)cc1[N+](=O)[O-]` [4‐A‐3‐NP, 4‐amino‐3‐nitrophenol], for which, in series [1], the “% Radioactivity in culture media after 24 h” value (from here on “% Radioactivity”) worked out at 62.3 ± 3.4%, the “Mass balance (% of applied dose at end of incubation)” value is 94.4 ± 3.0 % of applied dose, the Medium radioactivity was 62.3 ± 3.4 % of the applied dose and the Skin radioactivity is on record as 28.6 ± 4.5 % of the applied dose. In addition, the Skin surface radioactivity in series [1] is listed as 3.6 ± 2.1 % of the applied dose. Further, the “Substrate for NAT1” value in series [2] is reported as “not a substrate”. In series [3], the LogP is recorded as 0.41 and the Maximum water solubility was 2000 µg/mL. For the same compound, in series [4], the “% Radioactivity” value was determined as 51.9 ± 6.7%, the “Mass balance (% of applied dose at end of incubation)” value was 96.0 ± 2.6 % of applied dose, the Medium radioactivity is reported as 69.9 ± 5.8 % of the applied dose and the Skin radioactivity is on record as 15.6 ± 5.3 % of the applied dose. Also, the Skin surface radioactivity in series [4] is 10.5 ± 5.1 % of the applied dose. Also, the “N‐acetylated metabolite” value in series [5] (human skin incubations) is recorded as “not detected”. Besides, the “Parent compound in the medium after 24 h” value in series [5] (human skin, 24 h, mean ± SEM) is 0.1 ± 0.06 % Applied dose. In series [6] (pig skin incubations), the “N‐acetylated metabolite” value is given as “not detected”. Moreover, the “Parent compound in the medium after 24 h” value in series [6] (pig skin, 24 h, mean ± SEM) is given as 0.6 ± 0.2 % Applied dose.
For `Nc1ccc(Cl)cc1` [4‐Chloroaniline], the results for the “% Radioactivity” value in series [1] and in series [4] were 49.7 ± 4.4% and 54.3 ± 0.6%, respectively. Besides, the “Mass balance (% of applied dose at end of incubation)” value in series [1] was 86.2 ± 0.7 % of applied dose; in series [4], 99.2 ± 10.8 % of applied dose. Further, the figures for the Skin surface radioactivity in series [1] and in series [4] were 2.2 ± 0.5 % of the applied dose and 0.7 ± 0.2 % of the applied dose, respectively. Further, the Medium radioactivity was 49.7 ± 4.4 % of the applied dose in series [1] (listed as 4-Chloroaniline), 50 % of the applied dose in series [1] (listed as 4‐chloroaniline), 82.1 ± 8.8 % of the applied dose in series [4] (listed as 4-Chloroaniline) and 82 % of the applied dose in series [4] (listed as 4‐chloroaniline). Also, the Skin radioactivity in series [1] (listed as 4-Chloroaniline) is on record as 34.4 ± 3.8 % of the applied dose; in series [1] (listed as 4‐chloroaniline), 35 % of the applied dose; in series [4] (listed as 4-Chloroaniline) it was 16.3 ± 2.3 % of the applied dose; in series [4] (listed as 4‐chloroaniline), 16 % of the applied dose. For the same compound, in series [7], the “Radioactivity detected in the culture medium bound to proteins” value is listed as ~ 20%. Besides, the Maximum water solubility in series [3] was 3200 µg/mL. In addition, the “Metabolites detected in the skin or culture media” value in series [5] (human skin) and in series [6] (pig skin) was “no metabolites were detected” in each case.

The values are drawn from PMC6587507, “Comparison of the metabolism of 10 chemicals in human and pig skin explants” (Journal of Applied Toxicology, 2018).
